Here are results for 2 molecules from ChEMBL document CHEMBL4725456, “Therapeutic Potential of Autotaxin Inhibitors in Treatment of Interstitial Lung Diseases” (ACS Med Chem Lett, 2020).

Structures are written as SMILES.

As usually defined, the inhibition in vivo is the percentage by which the read-out fell short of the control.

This experiment can be described thus: In vivo inhibition of ATX in rat assessed as reduction in plasma LPA levels at 5 mg/kg, po measured after 8 hrs by LC-MS analysis relative to control. In kind it is functional.

As for `CC(=O)N1CCN(c2ccc(CNc3ccc(OCc4cccc(C#N)c4)nn3)cc2)CC1`, the inhibition in vivo at 5 mg/kg was 95.7%. `COc1ccc(COc2ccc(NCc3ccc(N4CCN(C(C)=O)CC4)cc3)nn2)cn1`: the inhibition in vivo at 5 mg/kg was 98.3%.
